Assay results taken from patent US7514443B2, “Substituted pyrazolo[1,5-a]pyrimidines as inhibitors of metabotropic glutamate receptors” (Hoffmann-La Roche Inc., priority 2003, dated 2009).

For `Cc1cc(-c2cnn3c(C(F)(F)F)cc(-c4ccc(Cl)cc4)nc23)cc(C)n1` [Example 4.19, 5-(4-Chloro-phenyl)-3-(2,6-dimethyl-pyridin-4-yl)-7-trifluoromethyl-pyrazolo[1,5-a]pyrimidine], which melting point is on record?
The melting point was 256 °C.

With `N#Cc1ncn2c(C(F)(F)F)cc(-c3ccc(Cl)cc3)nc12` [Example 5.2, 2-(4-Chloro-phenyl)-4-trifluoromethyl-imidazo[1,5-a]pyrimidine-8-carbonitrile] as the compound, how does the melting point read?
Its melting point is 205 °C.

Which melting point does the source give for `N#Cc1ncn2c(C(F)(F)F)cc(-c3ccncc3)nc12` [Example 5.27, 2-Pyridin-4-yl-4-trifluoromethyl-imidazo[1,5-a]pyrimidine-8-carbonitrile] here?
Its melting point is 254 °C.

For `FC(F)(F)c1ccc(-c2cc(C(F)(F)F)n3cnc(-c4cccnc4)c3n2)cc1` [Example 8.6, 8-Pyridin-3-yl-4-trifluoromethyl-2-(4-trifluoromethyl-phenyl)-imidazo[1,5-a]pyrimidine], which melting point is on record?
The melting point was 231 °C.

With `COc1ccc(-c2cc(C(F)(F)F)n3cnc(C#N)c3n2)cc1` [Example 5.5, 2-(4-Methoxy-phenyl)-4-trifluoromethyl-imidazo[1,5-a]pyrimidine-8-carbonitrile] as the compound, how does the melting point read?
Its melting point is 192 °C.

With `Fc1ccc(-c2cc(C(F)(F)F)n3ncc(-c4cccnc4)c3n2)cc1Cl` [Example 4.6, 5-(3-Chloro-4-fluoro-phenyl)-3-pyridin-3-yl-7-trifluoromethyl-pyrazolo[1,5-a]pyrimidine] as the compound, how does the melting point read?
Its melting point is 190 °C.

Which melting point does the source give for `FC(F)(F)COc1cc(-c2cc(C(F)(F)F)n3cnc(-c4ccncc4)c3n2)ccc1C(F)(F)F` [Example 8.32, 8-Pyridin-4-yl-2-[3-(2,2,2-trifluoro-ethoxy)-4-trifluoromethyl-phenyl]-4-trifluoromethyl-imidazo[1,5-a]pyrimidine] here?
The melting point was 233 °C.

With `FC(F)(F)c1ccc(-c2cc(C(F)(F)F)n3ncc(-c4ccncc4)c3n2)cc1` [Example 4.15, 5-(4-Trifluoromethyl-phenyl)-3-pyridin-4-yl-7-trifluoromethyl-pyrazolo[1,5-a]pyrimidine] as the compound, how does the melting point read?
The melting point was 261 °C.

Which melting point does the source give for `FC(F)(F)c1ccc(-c2cc(C(F)(F)F)n3cnc(-c4ccncc4)c3n2)cc1C(F)(F)F` [Example 8.34, 2-(3,4-Bis-trifluoromethyl-phenyl)-8-pyridin-4-yl-4-trifluoromethyl-imidazo[1,5-a]pyrimidine] here?
The melting point was 211 °C.

Which melting point does the source give for `Fc1ccc(-c2cc(C(F)(F)F)n3ncc(-c4ccccn4)c3n2)cc1Cl` [Example 4.8, 5-(3-Chloro-4-fluoro-phenyl)-3-pyridin-2-yl-7-trifluoromethyl-pyrazolo[1,5-a]pyrimidine] here?
Its melting point is 197 °C.

Which melting point does the source give for `N#Cc1cnn2c(C(F)(F)F)cc(-c3cccnc3)nc12` [Example 1.21, 5-Pyridin-3-yl-7-trifluoromethyl-pyrazolo[1,5-a]pyrimidine-3-carbonitrile] here?
The melting point was 193 °C.

Which melting point does the source give for `Cc1ccccc1-c1cc(C(F)(F)F)n2cnc(C#N)c2n1` [Example 5.8, 2-(2-Methyl-phenyl)-4-trifluoromethyl-imidazo[1,5-a]pyrimidine-8-carbonitrile] here?
The melting point was 151 °C.

For `Cc1cc(-c2cnn3c(C(F)F)cc(-c4ccc(C(F)(F)F)c(C)c4)nc23)ccn1` [Example 9.4, 7-Difluoromethyl-3-(2-methyl-pyridin-4-yl)-5-(3-methyl-4-trifluoromethyl-phenyl)-pyrazolo[1,5-a]pyrimidine], which melting point is on record?
Its melting point is 221 °C.

With `Cc1ccc(-c2cc(C(F)(F)F)n3ncc(C#N)c3n2)cc1` [Example 1.2, 5-(4-Methyl-phenyl)-7-trifluoromethyl-pyrazolo[1,5-a]pyrimidine-3-carbonitrile] as the compound, how does the melting point read?
Its melting point is 121 °C.

Which melting point does the source give for `FC(F)c1cc(-c2ccc(C(F)(F)F)cc2)nc2c(-c3ccncc3)cnn12` [Example 9.1, 7-Difluoromethyl-3-pyridin-4-yl-5-(4-trifluoromethyl-phenyl)-pyrazolo[1,5-a]pyrimidine] here?
The melting point was 222 °C.
